Results as given in US6358885B1, “Substituted phenylheterocyclic herbicides” (Mississippi State University, priority 1992, dated 2002).

Experiments:
Assay in all cases: Test B preemergence/postemergence greenhouse plant response rating 0 to 10
barley = type: in vivo, Hordeum vulgare; details: for Plant response rating, Barley: 0 to 10 scale
How it was run: (§1)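 Both application timings were run together: seeds got compound preemergence, and established seedlings (two to eighteen cm) got it postemergence. Non-phytotoxic solvent carried the chemical. Ratings are visual, versus controls, at twelve to sixteen days.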

giant foxtail = type: in vivo, Setaria faberii; details: for Plant response rating, Giant foxtail: 0 to 10 scale
How it was run: as §1

rice = type: in vivo, Oryza sativa; details: for Plant response rating, Rice: 0 to 10 scale
How it was run: as §1

corn = type: in vivo, Zea mays; details: for Plant response rating, Corn: 0 to 10 scale
How it was run: as §1

crabgrass = type: in vivo, Digitaria spp.; details: for Plant response rating, Crabgrass: 0 to 10 scale
How it was run: as §1

blackgrass = type: in vivo, Alopecurus myosuroides; details: for Plant response rating, Blackgrass: 0 to 10 scale
How it was run: as §1

wild buckwheat = type: in vivo, Polygonum convolvulus; details: for Plant response rating, Wild buckwheat: 0 to 10 scale
How it was run: as §1

sugar beet = type: in vivo, Beta vulgaris; details: for Plant response rating, Sugar beet: 0 to 10 scale
How it was run: as §1

chickweed = type: in vivo, Stellaria media; details: for Plant response rating, Chickweed: 0 to 10 scale
How it was run: as §1

velvetleaf = type: in vivo, Abutilon theophrasti; details: for Plant response rating, Velvetleaf: 0 to 10 scale
How it was run: as §1

wild oat = type: in vivo, Avena fatua; details: for Plant response rating, Wild oat: 0 to 10 scale
How it was run: as §1

cotton = type: in vivo, Gossypium hirsutum; details: for Plant response rating, Cotton: 0 to 10 scale
How it was run: as §1

cocklebur = type: in vivo, Xanthium pensylvanicum; details: for Plant response rating, Cocklebur: 0 to 10 scale
How it was run: as §1

barnyardgrass = type: in vivo, Echinochloa crus-galli; details: for Plant response rating, Barnyardgrass: 0 to 10 scale
How it was run: as §1

morningglory = type: in vivo, Ipomoea hederacea; details: for Plant response rating, Morningglory: 0 to 10 scale
How it was run: as §1

rape = type: in vivo, Brassica napus; details: for Plant response rating, Rape: 0 to 10 scale
How it was run: as §1

lambsquarters = type: in vivo, Chenopodium album; details: for Plant response rating, Lambsquarter: 0 to 10 scale
How it was run: as §1

sorghum = type: in vivo, Sorghum bicolor; details: for Plant response rating, Sorghum: 0 to 10 scale
How it was run: as §1

bedstraw = type: in vivo, Galium aparine; details: for Plant response rating, Bedstraw: 0 to 10 scale
How it was run: as §1

purple nutsedge = type: in vivo, Cyperus rotundus; details: for Plant response rating, Nutsedge: 0 to 10 scale
How it was run: as §1

cheatgrass = type: in vivo, Bromus secalinus; details: for Plant response rating, Cheatgrass: 0 to 10 scale
How it was run: as §1

wheat = type: in vivo, Triticum aestivum; details: for Plant response rating, Wheat: 0 to 10 scale
How it was run: as §1

soybean = type: in vivo, Glycine max; details: for Plant response rating, Soybean: 0 to 10 scale
How it was run: as §1

COCOc1cc(-c2nn3c(c2Br)CCCC3)c(F)cc1Cl [Compound 65]
Plant response rating, Barley (barley; POSTEMERGENCE, Rate 50 g/ha): 3 | Plant response rating, Barley (barley; PREEMERGENCE, Rate 50 g/ha): 0 | Plant response rating (0 to 10 scale), Barley (barley; PREEMERGENCE, Rate 200 g/ha): 2 | Plant response rating, Barley (barley; Rate 200 g/ha, POSTEMERGENCE): 6 | Plant response rating, Giant foxtail (giant foxtail; POSTEMERGENCE, Rate 50 g/ha): 5 | Plant response rating, Giant foxtail (giant foxtail; PREEMERGENCE, Rate 50 g/ha): 6 | Plant response rating (0 to 10 scale), Giant foxtail (giant foxtail; PREEMERGENCE, Rate 200 g/ha): 10 | Plant response rating, Giant foxtail (giant foxtail; Rate 200 g/ha, POSTEMERGENCE): 8 | Plant response rating, Rice (rice; POSTEMERGENCE, Rate 50 g/ha): 5 | Plant response rating, Rice (rice; PREEMERGENCE, Rate 50 g/ha): 1 | Plant response rating (0 to 10 scale), Rice (rice; PREEMERGENCE, Rate 200 g/ha): 3 | Plant response rating, Rice (rice; Rate 200 g/ha, POSTEMERGENCE): 6 | Plant response rating, Corn (corn; POSTEMERGENCE, Rate 50 g/ha): 4 | Plant response rating, Corn (corn; PREEMERGENCE, Rate 50 g/ha): 0 | Plant response rating (0 to 10 scale), Corn (corn; PREEMERGENCE, Rate 200 g/ha): 4 | Plant response rating, Corn (corn; Rate 200 g/ha, POSTEMERGENCE): 5 | Plant response rating, Crabgrass (crabgrass; POSTEMERGENCE, Rate 50 g/ha): 4 | Plant response rating, Crabgrass (crabgrass; PREEMERGENCE, Rate 50 g/ha): 2 | Plant response rating (0 to 10 scale), Crabgrass (crabgrass; PREEMERGENCE, Rate 200 g/ha): 2 | Plant response rating, Crabgrass (crabgrass; Rate 200 g/ha, POSTEMERGENCE): 7 | Plant response rating, Blackgrass (blackgrass; POSTEMERGENCE, Rate 50 g/ha): 7 | Plant response rating, Blackgrass (blackgrass; PREEMERGENCE, Rate 50 g/ha): 7 | Plant response rating (0 to 10 scale), Blackgrass (blackgrass; PREEMERGENCE, Rate 200 g/ha): 7 | Plant response rating, Blackgrass (blackgrass; Rate 200 g/ha, POSTEMERGENCE): 7 | Plant response rating, Wild buckwheat (wild buckwheat; POSTEMERGENCE, Rate 50 g/ha): 10 | Plant response rating, Wild buckwheat (wild buckwheat; PREEMERGENCE, Rate 50 g/ha): 10 | Plant response rating (0 to 10 scale), Wild buckwheat (wild buckwheat; PREEMERGENCE, Rate 200 g/ha): 10 | Plant response rating, Wild buckwheat (wild buckwheat; Rate 200 g/ha, POSTEMERGENCE): 10 | Plant response rating, Sugar beet (sugar beet; POSTEMERGENCE, Rate 50 g/ha): 10 | Plant response rating, Sugar beet (sugar beet; PREEMERGENCE, Rate 50 g/ha): 9 | Plant response rating (0 to 10 scale), Sugar beet (sugar beet; PREEMERGENCE, Rate 200 g/ha): 10 | Plant response rating, Sugar beet (sugar beet; Rate 200 g/ha, POSTEMERGENCE): 10 | Plant response rating, Chickweed (chickweed; POSTEMERGENCE, Rate 50 g/ha): 5 | Plant response rating, Chickweed (chickweed; PREEMERGENCE, Rate 50 g/ha): 1 | Plant response rating (0 to 10 scale), Chickweed (chickweed; PREEMERGENCE, Rate 200 g/ha): 3 | Plant response rating, Chickweed (chickweed; Rate 200 g/ha, POSTEMERGENCE): 9 | Plant response rating, Velvetleaf (velvetleaf; POSTEMERGENCE, Rate 50 g/ha): 10 | Plant response rating, Velvetleaf (velvetleaf; PREEMERGENCE, Rate 50 g/ha): 9 | Plant response rating (0 to 10 scale), Velvetleaf (velvetleaf; PREEMERGENCE, Rate 200 g/ha): 9 | Plant response rating, Velvetleaf (velvetleaf; Rate 200 g/ha, POSTEMERGENCE): 10 | Plant response rating, Wild oat (wild oat; POSTEMERGENCE, Rate 50 g/ha): 7 | Plant response rating, Wild oat (wild oat; PREEMERGENCE, Rate 50 g/ha): 2 | Plant response rating (0 to 10 scale), Wild oat (wild oat; PREEMERGENCE, Rate 200 g/ha): 8 | Plant response rating, Wild oat (wild oat; Rate 200 g/ha, POSTEMERGENCE): 7 | Plant response rating, Cotton (cotton; POSTEMERGENCE, Rate 50 g/ha): 10 | Plant response rating, Cotton (cotton; PREEMERGENCE, Rate 50 g/ha): 0 | Plant response rating (0 to 10 scale), Cotton (cotton; PREEMERGENCE, Rate 200 g/ha): 4 | Plant response rating, Cotton (cotton; Rate 200 g/ha, POSTEMERGENCE): 10 | Plant response rating, Cocklebur (cocklebur; POSTEMERGENCE, Rate 50 g/ha): 10 | Plant response rating, Cocklebur (cocklebur; PREEMERGENCE, Rate 50 g/ha): 0 | Plant response rating (0 to 10 scale), Cocklebur (cocklebur; PREEMERGENCE, Rate 200 g/ha): 4 | Plant response rating, Cocklebur (cocklebur; Rate 200 g/ha, POSTEMERGENCE): 10 | Plant response rating, Barnyardgrass (barnyardgrass; POSTEMERGENCE, Rate 50 g/ha): 7 | Plant response rating, Barnyardgrass (barnyardgrass; PREEMERGENCE, Rate 50 g/ha): 4 | Plant response rating (0 to 10 scale), Barnyardgrass (barnyardgrass; PREEMERGENCE, Rate 200 g/ha): 9 | Plant response rating, Barnyardgrass (barnyardgrass; Rate 200 g/ha, POSTEMERGENCE): 9 | Plant response rating, Morningglory (morningglory; POSTEMERGENCE, Rate 50 g/ha): 10 | Plant response rating, Morningglory (morningglory; PREEMERGENCE, Rate 50 g/ha): 0 | Plant response rating (0 to 10 scale), Morningglory (morningglory; PREEMERGENCE, Rate 200 g/ha): 2 | Plant response rating, Morningglory (morningglory; Rate 200 g/ha, POSTEMERGENCE): 10 | Plant response rating, Rape (rape; POSTEMERGENCE, Rate 50 g/ha): 8 | Plant response rating, Rape (rape; PREEMERGENCE, Rate 50 g/ha): 0 | Plant response rating (0 to 10 scale), Rape (rape; PREEMERGENCE, Rate 200 g/ha): 10 | Plant response rating, Rape (rape; Rate 200 g/ha, POSTEMERGENCE): 9 | Plant response rating, Lambsquarter (lambsquarters; POSTEMERGENCE, Rate 50 g/ha): 10 | Plant response rating, Lambsquarter (lambsquarters; PREEMERGENCE, Rate 50 g/ha): 10 | Plant response rating (0 to 10 scale), Lambsquarter (lambsquarters; PREEMERGENCE, Rate 200 g/ha): 10 | Plant response rating, Lambsquarter (lambsquarters; Rate 200 g/ha, POSTEMERGENCE): 10 | Plant response rating, Sorghum (sorghum; POSTEMERGENCE, Rate 50 g/ha): 6 | Plant response rating, Sorghum (sorghum; PREEMERGENCE, Rate 50 g/ha): 0 | Plant response rating (0 to 10 scale), Sorghum (sorghum; PREEMERGENCE, Rate 200 g/ha): 0 | Plant response rating, Sorghum (sorghum; Rate 200 g/ha, POSTEMERGENCE): 7 | Plant response rating, Bedstraw (bedstraw; POSTEMERGENCE, Rate 50 g/ha): 10 | Plant response rating, Bedstraw (bedstraw; PREEMERGENCE, Rate 50 g/ha): 5 | Plant response rating (0 to 10 scale), Bedstraw (bedstraw; PREEMERGENCE, Rate 200 g/ha): 5 | Plant response rating, Bedstraw (bedstraw; Rate 200 g/ha, POSTEMERGENCE): 10 | Plant response rating, Nutsedge (purple nutsedge; POSTEMERGENCE, Rate 50 g/ha): 3 | Plant response rating, Nutsedge (purple nutsedge; PREEMERGENCE, Rate 50 g/ha): 0 | Plant response rating (0 to 10 scale), Nutsedge (purple nutsedge; PREEMERGENCE, Rate 200 g/ha): 0 | Plant response rating, Nutsedge (purple nutsedge; Rate 200 g/ha, POSTEMERGENCE): 4 | Plant response rating, Cheatgrass (cheatgrass; POSTEMERGENCE, Rate 50 g/ha): 3 | Plant response rating, Cheatgrass (cheatgrass; PREEMERGENCE, Rate 50 g/ha): 2 | Plant response rating (0 to 10 scale), Cheatgrass (cheatgrass; PREEMERGENCE, Rate 200 g/ha): 4 | Plant response rating, Cheatgrass (cheatgrass; Rate 200 g/ha, POSTEMERGENCE): 6 | Plant response rating, Wheat (wheat; POSTEMERGENCE, Rate 50 g/ha): 6 | Plant response rating, Wheat (wheat; PREEMERGENCE, Rate 50 g/ha): 0 | Plant response rating (0 to 10 scale), Wheat (wheat; PREEMERGENCE, Rate 200 g/ha): 5 | Plant response rating, Wheat (wheat; Rate 200 g/ha, POSTEMERGENCE): 5 | Plant response rating, Soybean (soybean; PREEMERGENCE, Rate 50 g/ha): 0 | Plant response rating (0 to 10 scale), Soybean (soybean; PREEMERGENCE, Rate 200 g/ha): 2 | Plant response rating, Soybean (soybean; Rate 200 g/ha, POSTEMERGENCE): 8
